According to patent publication US20240109917A1 (ACTELION PHARMACEUTICALS LTD, priority 2020, published 2024):
Read-outs that look alike come from different tables or passages of the source.

Assays:
[1] = target: Tb-labeled inactive PDGFRβ (Homo sapiens (Human), UniProt P09619); assay: PDGFRβ LanthaScreen Assay; assay type: binding; details: read-out: PDGFR Lantha IC50
[2] = target: His6-TEV-PDGFRβ (557-1016) (Homo sapiens (Human), UniProt P09619); assay: PDGFRβ HTRF Assay; assay type: biochemical; details: read-out: PDGFR HTRF IC50
Chain of His6-TEV-PDGFRβ (557-1016) (P09619 557-1016): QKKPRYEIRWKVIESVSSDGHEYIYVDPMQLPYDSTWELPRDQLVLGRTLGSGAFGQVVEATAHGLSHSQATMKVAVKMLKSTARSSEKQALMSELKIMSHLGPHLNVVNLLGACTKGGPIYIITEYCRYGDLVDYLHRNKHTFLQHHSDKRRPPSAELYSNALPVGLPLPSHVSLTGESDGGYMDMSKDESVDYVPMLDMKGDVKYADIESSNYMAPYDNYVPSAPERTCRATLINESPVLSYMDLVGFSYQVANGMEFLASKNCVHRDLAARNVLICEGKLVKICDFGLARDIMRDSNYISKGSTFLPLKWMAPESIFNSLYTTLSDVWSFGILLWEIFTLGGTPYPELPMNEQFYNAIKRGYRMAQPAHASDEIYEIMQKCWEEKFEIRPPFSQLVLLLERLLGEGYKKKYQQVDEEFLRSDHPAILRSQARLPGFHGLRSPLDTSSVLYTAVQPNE
Summary of the method: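 Human PDGFRβ (557-1016) pre-incubated with compound for 30 min at RT in pH 7.5 HEPES/MgCl2/EGTA/Brij-35/DTT buffer. Reaction started with ATP and TK-biotin peptide, run 3 h at RT, then quenched with EDTA-containing Eu-cryptate antibody/streptavidin-XL665. HTRF 665/620 nm ratio read after 60 min; percent inhibition relative to DMSO and 10 μM imatinib controls.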

[3] = target: PDGFRβ (Rattus norvegicus (Rat), UniProt Q05030); assay: PDGFRβ Cellular Assay (PDGFRb P-Y751 HTRF in A10 cells stimulated with PDGF-BB); assay type: cell-based
Chain of PDGFRβ (Q05030 32-1097): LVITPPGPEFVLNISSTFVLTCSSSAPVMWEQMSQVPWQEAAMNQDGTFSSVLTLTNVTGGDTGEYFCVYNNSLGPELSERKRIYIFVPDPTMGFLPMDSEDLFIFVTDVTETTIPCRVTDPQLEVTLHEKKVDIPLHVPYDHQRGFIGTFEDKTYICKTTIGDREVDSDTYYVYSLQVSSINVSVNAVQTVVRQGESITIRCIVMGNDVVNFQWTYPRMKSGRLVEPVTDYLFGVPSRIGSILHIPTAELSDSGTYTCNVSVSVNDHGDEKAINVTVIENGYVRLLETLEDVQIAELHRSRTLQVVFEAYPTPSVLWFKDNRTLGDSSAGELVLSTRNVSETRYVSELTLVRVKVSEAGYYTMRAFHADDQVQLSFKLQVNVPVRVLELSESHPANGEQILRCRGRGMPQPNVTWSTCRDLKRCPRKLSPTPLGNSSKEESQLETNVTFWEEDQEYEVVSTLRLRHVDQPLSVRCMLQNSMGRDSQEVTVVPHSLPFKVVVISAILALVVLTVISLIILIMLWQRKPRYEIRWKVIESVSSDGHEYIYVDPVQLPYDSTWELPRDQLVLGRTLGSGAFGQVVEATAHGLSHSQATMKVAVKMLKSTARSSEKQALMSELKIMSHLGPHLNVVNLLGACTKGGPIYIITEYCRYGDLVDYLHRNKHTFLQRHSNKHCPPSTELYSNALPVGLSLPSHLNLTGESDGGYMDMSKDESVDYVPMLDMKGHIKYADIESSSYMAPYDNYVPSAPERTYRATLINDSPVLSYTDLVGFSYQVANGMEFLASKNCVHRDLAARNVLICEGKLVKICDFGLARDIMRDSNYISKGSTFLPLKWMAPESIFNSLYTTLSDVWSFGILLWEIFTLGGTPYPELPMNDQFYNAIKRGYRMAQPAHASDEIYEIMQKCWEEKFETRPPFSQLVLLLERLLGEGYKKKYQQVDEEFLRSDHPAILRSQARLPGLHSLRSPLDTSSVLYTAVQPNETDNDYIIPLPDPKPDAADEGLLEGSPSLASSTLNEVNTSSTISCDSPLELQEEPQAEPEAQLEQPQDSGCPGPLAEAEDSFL
Summary of the method: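 Rat A10 cells, plated overnight, were treated with compound for 3 hours, then stimulated with PDGF-BB (working stock 100 ng/mL in 10% FBS medium). After lysis, PDGFRβ P-Y751 was detected by HTRF.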

Chain of Tb-labeled inactive PDGFRβ (P09619 33-1106): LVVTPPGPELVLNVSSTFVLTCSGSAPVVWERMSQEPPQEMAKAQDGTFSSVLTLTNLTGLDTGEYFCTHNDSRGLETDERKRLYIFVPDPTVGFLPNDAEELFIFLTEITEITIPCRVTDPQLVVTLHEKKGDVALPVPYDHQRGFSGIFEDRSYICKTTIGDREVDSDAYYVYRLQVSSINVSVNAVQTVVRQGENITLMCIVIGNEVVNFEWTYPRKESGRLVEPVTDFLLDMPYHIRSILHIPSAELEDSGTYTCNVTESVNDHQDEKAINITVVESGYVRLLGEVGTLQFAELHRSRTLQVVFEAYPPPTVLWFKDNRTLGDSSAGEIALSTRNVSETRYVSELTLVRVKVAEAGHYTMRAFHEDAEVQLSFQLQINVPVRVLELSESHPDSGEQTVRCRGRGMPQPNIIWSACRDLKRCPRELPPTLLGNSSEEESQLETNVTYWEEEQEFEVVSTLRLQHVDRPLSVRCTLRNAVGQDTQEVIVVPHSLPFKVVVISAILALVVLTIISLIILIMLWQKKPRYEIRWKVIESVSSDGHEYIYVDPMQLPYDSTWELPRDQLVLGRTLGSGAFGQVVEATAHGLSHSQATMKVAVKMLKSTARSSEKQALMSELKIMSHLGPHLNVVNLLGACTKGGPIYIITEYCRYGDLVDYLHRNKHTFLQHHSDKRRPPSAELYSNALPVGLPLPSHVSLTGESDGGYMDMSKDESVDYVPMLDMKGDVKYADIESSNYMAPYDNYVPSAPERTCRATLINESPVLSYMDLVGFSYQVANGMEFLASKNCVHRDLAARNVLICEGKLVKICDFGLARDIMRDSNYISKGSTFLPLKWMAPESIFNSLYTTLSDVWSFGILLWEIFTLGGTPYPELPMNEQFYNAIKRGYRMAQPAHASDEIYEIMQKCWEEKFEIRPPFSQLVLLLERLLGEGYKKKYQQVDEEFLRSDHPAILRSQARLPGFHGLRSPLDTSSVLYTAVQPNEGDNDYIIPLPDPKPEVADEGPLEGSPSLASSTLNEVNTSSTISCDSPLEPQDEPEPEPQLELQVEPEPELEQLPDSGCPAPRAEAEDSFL

SMILES: COc1ncccc1-c1cn2ncc(C(=O)Nc3cc(NC(=O)CN4CCO[C@H](C)C4)cnc3C)c2s1 [Example 318, (R)-2-(2-methoxypyridin-3-yl)-N-(2-methyl-5-(2-(2-methylmorpholino)acetamido)pyridin-3-yl)pyrazolo[5,1-b]thiazole-7-carboxamide]
- IC50 [1]: 1.9 nM
- IC50 [2]: 0.3 nM
- IC50 ([3]; PDGFR Cellular IC50): 3.8 nM

SMILES: COc1ncccc1-c1cn2ncc(C(=O)Nc3cc(NC(=O)CN4CCOC(C)(C)C4)cnc3C)c2s1 [Example 319, N-(5-(2-(2,2-dimethylmorpholino)acetamido)-2-methylpyridin-3-yl)-2-(2-methoxypyridin-3-yl)pyrazolo[5,1-b]thiazole-7-carboxamide]
- IC50 [1]: 1.8 nM
- IC50 [2]: 0.3 nM
- IC50 ([3]; read-out: PDGFR Cellular IC50): 2.7 nM

SMILES: COc1ncccc1-c1cn2ncc(C(=O)Nc3cc(NC(=O)CN4CCC5(CCOC5)C4)cnc3C)c2s1 (stereo not drawn) [Example 320, N-(5-(2-(2-oxa-7-azaspiro[4.4]nonan-7-yl)acetamido)-2-methylpyridin-3-yl)-2-(2-methoxypyridin-3-yl)pyrazolo[5,1-b]thiazole-7-carboxamide]
- IC50 [1]: 1.4 nM
- IC50 [2]: 0.2 nM
- IC50 ([3]; read-out: PDGFR Cellular IC50): 1.6 nM

SMILES: COc1ncccc1-c1cn2ncc(C(=O)Nc3cc(NC(=O)CN4CCCC5(CC5)C4)cnc3C)c2s1 [Example 321, N-(5-(2-(5-azaspiro[2.5]octan-5-yl)acetamido)-2-methylpyridin-3-yl)-2-(2-methoxypyridin-3-yl)pyrazolo[5,1-b]thiazole-7-carboxamide]
- IC50 [1]: 1 nM
- IC50 [2]: 0.2 nM
- IC50 ([3]; read-out: PDGFR Cellular IC50): 1.2 nM

SMILES: Cc1ncc(NC(=O)C[C@@H]2CCCN2C(C)C)cc1NC(=O)c1cnn2cc(-c3cccnc3O)sc12 [Example 322, (S)-2-(2-hydroxypyridin-3-yl)-N-(5-(2-(1-isopropylpyrrolidin-2-yl)acetamido)-2-methylpyridin-3-yl)pyrazolo[5,1-b]thiazole-7-carboxamide]
- IC50 [1]: 15.5 nM
- IC50 [2]: 0.7 nM
- IC50 ([3]; read-out: PDGFR Cellular IC50): 122 nM

SMILES: COc1ncccc1-c1cn2ncc(C(=O)Nc3cc(NC(=O)C[C@@H]4CCCN4C(C)C)cnc3C)c2s1 [Example 323, (S)—N-(5-(2-(1-isopropylpyrrolidin-2-yl)acetamido)-2-methylpyridin-3-yl)-2-(2-methoxypyridin-3-yl)pyrazolo[5,1-b]thiazole-7-carboxamide]
- IC50 [1]: 1.7 nM
- IC50 [2]: 0.2 nM
- IC50 ([3]; read-out: PDGFR Cellular IC50): 2.8 nM

SMILES: COc1ncccc1-c1cn2ncc(C(=O)Nc3cc(NC(=O)CN4CCC5(CC5)C4)cnc3C)c2s1 [Example 324, N-(5-(2-(5-azaspiro[2.4]heptan-5-yl)acetamido)-2-methylpyridin-3-yl)-2-(2-methoxypyridin-3-yl)pyrazolo[5,1-b]thiazole-7-carboxamide]
- IC50 [1]: 0.7 nM
- IC50 [2]: 0.1 nM
- IC50 ([3]; read-out: PDGFR Cellular IC50): 1.1 nM

SMILES: COCCn1cc(-c2cn3ncc(C(=O)Nc4cc(NC(=O)CN5CCC[C@@H]5C)cnc4C)c3s2)cn1 [Example 325, (S)-2-(1-(2-methoxyethyl)-1H-pyrazol-4-yl)-N-(2-methyl-5-(2-(2-methylpyrrolidin-1-yl)acetamido)pyridin-3-yl)pyrazolo[5,1-b]thiazole-7-carboxamide]
- IC50 [1]: 16.3 nM
- IC50 [2]: 0.8 nM
- IC50 ([3]; read-out: PDGFR Cellular IC50): 10.7 nM

SMILES: COCCn1cc(-c2cn3ncc(C(=O)Nc4cc(NC(=O)CN5CCC6(CC6)C5)cnc4C)c3s2)cn1 [Example 326, N-(5-(2-(5-azaspiro[2.4]heptan-5-yl)acetamido)-2-methylpyridin-3-yl)-2-(1-(2-methoxyethyl)-1H-pyrazol-4-yl)pyrazolo[5,1-b]thiazole-7-carboxamide]
- IC50 [1]: 3.7 nM
- IC50 [2]: 0.4 nM
- IC50 ([3]; PDGFR Cellular IC50): 3 nM

SMILES: COCCn1cc(-c2cn3ncc(C(=O)Nc4cc(NC(=O)CN5CCCC5(C)C)cnc4C)c3s2)cn1 [Example 329, N-(5-(2-(2,2-dimethylpyrrolidin-1-yl)acetamido)-2-methylpyridin-3-yl)-2-(1-(2-methoxyethyl)-1H-pyrazol-4-yl)pyrazolo[5,1-b]thiazole-7-carboxamide]
- IC50 [1]: 5.6 nM
- IC50 [2]: 0.5 nM
- IC50 ([3]; PDGFR Cellular IC50): 4.4 nM

SMILES: COCCn1cc(-c2cn3ncc(C(=O)Nc4cc(NC(=O)CN5CCC[C@H]5C)cnc4C)c3s2)cn1 [Example 330, (R)-2-(1-(2-methoxyethyl)-1H-pyrazol-4-yl)-N-(2-methyl-5-(2-(2-methylpyrrolidin-1-yl)acetamido)pyridin-3-yl)pyrazolo[5,1-b]thiazole-7-carboxamide]
- IC50 [1]: 9.6 nM
- IC50 [2]: 0.6 nM
- IC50 ([3]; read-out: PDGFR Cellular IC50): 6.8 nM
